The values that follow come from patent EP0065874A1, “2-Aminophenol derivatives, methods for their preparation and composition containing the same” (ONO PHARMACEUTICAL CO., LTD., priority 1981, dated 1982).

Structures can show the parent of a compound that is named as a salt.

In one series the test system is mice. Put plainly: Acute toxicity by intravenous injection. In kind it is in vivo. Conditions: intravenous injection to tail vein, doses of 10 mg/Kg and 30 mg/Kg. Here is the method: On the other hand, all extent of the compounds of the present invention were confirmed that their acute toxicities were more than 30 mg/Kg by intravenous injection. Therefore, the compounds of the present invention may be considered to be sufficiently safe and suitable for medical use.

The test system of another series is cyclooxygenase. Put plainly: Standard assay system using polymorphonuclear leukocytes: inhibition of HHT or TXB2 production from [1-14C] arachidonic acid. In kind it is cell-based. The conditions noted are these: polymorphonuclear leukocytes from guinea pig (4 x 10^7 cells), 5 minutes at 30°C, read-out: concentrations for 50% inhibitions on cyclooxygenase. Here is the method:
The experiments for screening using polymorphonuclear leukocytes was carried out as follows: The reaction mixture (0.1 ml) containing 5 umole of potassium phosphate at pH 7.4, 0.1 µmole of calsium chloride, polymorphonuclear leukocytes prepared from guinea pigs (4 x 10^7 cells) and test compound was preincubated for 5 minutes at 30°C. The reaction was started by the addition of [^1-14C] arachidonic acid ([…] dpm, 1.8 nmole), followed by the incubation at 30°C for 5 minutes. The reaction was terminated by the addition of 0.3 ml of mixture of ether/ methanol/lM citric acid (30/4/1). The organic phase (20 µl) was applied to silica gel plate. Thin layer chromatography was performed to separate each product with solvent system of ether/petroleum ether/acetic acid (85/15/0.1).
Activity of 5-lipoxygenase and cyclooxygenase were calculated from the measurement of the radioactivity corresponding to 5-HETE and 12L-hydroxy-5,8,10-heptareienoic acid (i.e. HHT) or thromboxane B2 (i.e. TXB2). [it have been known that HHT and TXB2 were the last products of the system concerning cyclooxygenase in the arachidonate cascade] Further, it was determined that the concentrations of 50% inhibitions to produce 5-HETE and HHT or TXB2 for the 50% inhibiting concentrations of 5-lipoxygenase and cyclooxygenase, respectively.

Consider `CCCCCCC(O)c1cc(C(C)(C)C)cc(N)c1O` (stereo not drawn) [2-Amino-4-t-butyl-6-(1-hydroxyheptyl)phenol], for which the “dead case in 30 cases” value with mice was “no dead case”.
Regarding `Nc1cc(F)cc(C(O)c2ccc(Cl)cc2)c1O` (stereo not drawn) [3-Amino-4'-chloro-5-fluoro-2-hydroxybenzhydrol hydrochloride], the IC50 in the series on cyclooxygenase is 7.2 µM.
As to `Nc1cc(F)cc(C(=O)c2ccc(Cl)cc2)c1O` [3-Amino-4'-chloro-5-fluoro-2-hydroxybenzophenona], the IC50 in the series on cyclooxygenase is 2 µM.
Regarding `Nc1cc(Cl)cc(C(=O)c2ccc(Cl)cc2)c1O` [3-Amino-5,4'-dichloro-2-hydroxybenzophenone], the IC50 in the series with cyclooxygenase turned out to be 3 µM.
Take `COc1ccc(C(=O)c2cc(Cl)cc(N)c2O)cc1.Cl` [3-Amino-5-chloro-2-hydroxy-4'-methoxybenzophenone hydrochloride]: the “dead case in 30 cases” value in the series on mice was “no dead case”.
On to `CC(C)(C)c1cc(N)c(O)c(C(O)c2ccc(Cl)cc2)c1` (stereo not drawn) [3-Amino-5-t-butyl-4'-chloro-2-hydroxybenzhydrol hydrochloride], for which, in the series with cyclooxygenase, the IC50 was 100 µM.
